Laboratory results reported in patent US8372811B2, “Composition for treating retinopathy or glaucoma comprising thrombin derived peptides” (Eyegene, Inc., priority 2007, dated 2013).
“Also recorded” adds a separate entry of the source. Non-standard residues stand in square brackets, D forms with d. No end group written: not given here.

Tested on: mouse retinal angiogenesis
Assay: Mouse model for inducing retinal angiogenesis using oxygen partial pressure (75% oxygen, then normal 20%); FITC-dextran fluorescence microscopy of retina
Assay type: in vivo
Conditions: intraperitoneally; for retinal blood vessels observed (Example 2): FIG. 4; for retinal blood vessels observed (Example 2) / retinal blood vessels observed (Example 3): dose not given; for effect compared between polypeptides SEQ ID NOs: 1, 2 and SEQ ID NO: 3 (Example 2): FIG. 4 versus FIG. 2; for retinal blood vessels observed (Example 3): FIG. 2 and FIG. 5
Description: For this purpose, a mouse was kept for 5 days under a high oxygen environment with a constant 75% oxygen partial pressure 7 days after the mouse was born in an apparatus that can adjust an oxygen partial pressure, and then kept under a 20% oxygen pressure which is a normal oxygen partial pressure. […] In order to observe the blood vessels, 50 mg of FITC-dextran having a molecular weight of 2×10^6 was dissolved in 1 ml of saline, and the resultant solution was injected through the left ventricle. The mouse eyeball was extracted immediately after the injection. The extracted eyeball was washed with saline, fixed with 1% paraformaldehyde for 4 to 24 hours, and then a lens was removed from the eyeball. Then, the resultant mouse retina was evenly spread over a glass slide, and the glass slide was sealed with glycerine-gelatin, and then observed using a fluorescence microscope. The degree on abnormal vessel, avascular lesion and vascular leakage caused by the retinopathy was digitalized and the retinopathy score was compared.

Cyclo(-Arg-Gly-Asp-D-Phe-Val) (cyclo(RGD[dF]V)) [SEQ ID NO: 1]
retinal blood vessels observed (Example 2): normal angiogenesis is induced but abnormal angiogenesis is suppressed; also recorded: the abnormal angiogenesis was decreased and the normal blood vessels were observed | effect compared between polypeptides SEQ ID NOs: 1, 2 and SEQ ID NO: 3 (Example 2): the same advantageous effect

H-Gly-Phe-Gly-Arg-Gly-Asp-Ser-Pro-Cys-Ala-OH (H-GFGRGDSPCA-OH) [SEQ ID NO: 2]
retinal blood vessels observed (Example 2): normal angiogenesis is induced but abnormal angiogenesis is suppressed; also recorded: the abnormal angiogenesis was decreased and the normal blood vessels were observed | effect compared between polypeptides SEQ ID NOs: 1, 2 and SEQ ID NO: 3 (Example 2): the same advantageous effect

Thrombin [SEQ ID NO: 4]
effect compared with TP508 (SEQ ID NO: 3) (Example 3): had a similar effect as the TP508 | retinal blood vessels observed (Example 3): normal angiogenesis is induced but abnormal angiogenesis is suppressed and the vascular leakage is decreased; also recorded: the abnormal angiogenesis, avascular lesion and vascular leakage were decreased and the normal blood vessels were observed

DEGKRGDGDACEGDS [SEQ ID NO: 6, smaller peptide than the TP508; chemical synthesis]
effect compared with TP508 (SEQ ID NO: 3) (Example 3): had a similar effect as the TP508 | retinal blood vessels observed (Example 3): normal angiogenesis is induced but abnormal angiogenesis is suppressed and the vascular leakage is decreased; also recorded: the abnormal angiogenesis, avascular lesion and vascular leakage were decreased and the normal blood vessels were observed
